The text below walks through data of patent US20140256771A1, “COMPOUNDS THAT MODULATE INTRACELLULAR CALCIUM” (CalciMedica, Inc., priority 2011, published 2014).

For test [1], the target named is STIM1 and Orai1 (Homo sapiens, UniProt Q96D31). Conditions: HEK293 cells co-expressing STIM1 and Orai1; cited from earlier work.
Test [2] relates to Jurkat cells. Conditions: cited from earlier work.
In test [3] the test system is Jurkat cells. To be noted: cited from earlier work. The source holds these as a separate data set.
Test [4] has as its system RBL-2H3 cells. Briefly: Fluorescence-based assay of store-operated calcium entry in RBL-2H3 cells. In kind it is cell-based, rat. To be noted: Rattus norvegicus, RBL-2H3, thapsigargin store depletion, 50% inhibition of Upslope, read-out: RBL-2H3 (IC50, μmol). The method in brief: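 RBL-2H3 cells loaded with 1.5 μM Fluo-4-AM, preincubated with compound 5 min at RT in Ca2+-free HBSS, stores depleted with thapsigargin 25 min. Calcium re-addition (final from 12 mM 12× stock) read on FLIPR; IC50 from inhibition of fluorescence rise at 7 s (Upslope).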

The target of test [5] is T1, Orai1/STIM1 (Homo sapiens, UniProt Q96D31).
T1 construct: expressed in transfected cells; host or cells: HEK-293
In words: Fluorescence-based assay of store-operated calcium entry in Orai1/STIM1 stable cells. In kind it is cell-based. Also on record: key to Orai1/STIM1 (IC50, μmol): A < 0.6 μmol; 0.6 μmol ≦ B ≦ 1.2 μmol; C > 1.2 μmol; — = no fit. To be noted: HEK-293 cells stably expressing human STIM1 and Orai1, 50% inhibition of Peak-Basal fluo-4 signal; for IC50: read-out: Orai1/STIM1 (IC50, μmol). The method in brief:
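HEK-293 cells stably expressing human STIM1 and Orai1, fluo-4-AM loaded, preincubated 30 min at RT with compound in Ca2+-free HBSS. Calcium entry triggered by CaCl2 addition, read on FLIPR; IC50 is concentration inhibiting 50% of peak-minus-baseline fluorescence.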

SMILES strings stand for the structures. Where two headings read alike, the source gives them in different places.

T1 sequence (Q96D31 whole entry): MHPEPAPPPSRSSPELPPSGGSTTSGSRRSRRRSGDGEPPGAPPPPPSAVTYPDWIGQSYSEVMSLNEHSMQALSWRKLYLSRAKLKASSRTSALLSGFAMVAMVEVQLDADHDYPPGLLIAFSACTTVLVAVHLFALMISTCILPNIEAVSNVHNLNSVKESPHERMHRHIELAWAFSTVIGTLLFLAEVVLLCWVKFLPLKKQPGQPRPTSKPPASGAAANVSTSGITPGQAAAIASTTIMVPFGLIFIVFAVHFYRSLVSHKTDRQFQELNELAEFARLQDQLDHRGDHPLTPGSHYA
STIM1 and Orai1, sequence (Q96D31 whole entry, species assumed): as the sequence (Q96D31 whole entry) above

As to `NCCOB(c1ccccc1)c1ccccc1` [2-aminoethoxydiphenylborate], the “block of store dependent Ca2+ entry” value in test [1] is “completely blocked”.
`Cc1nnsc1C(=O)Nc1ccc(-n2nc(C(F)(F)F)cc2C(F)(F)F)cc1` [BTP-2]: in test [2], the “inhibition of SOCE” value was “inhibits”. Also, in test [3], the inhibition of proliferation result is given as “inhibits”.
Take `Cc1cc2c(cc1-c1ccc(NC(=O)c3c(F)cccc3F)cc1)OC(F)(F)O2`: the IC50 in test [4] (Table iv) was under 600 nM; in test [5] (Table iv), over 1200 nM.
With `Cc1cccc(F)c1CNc1ccc(-c2cc(C(F)(F)F)nn2C)c(F)c1`, the IC50 in test [4] (Table iii) and in test [5] (Table iii) was under 600 nM throughout.
In the case of `Fc1ccccc1CNc1ccc(-n2nc(C(F)(F)F)cc2C(F)(F)F)cc1`, the IC50 in test [4] (Table iii) and in test [5] (Table iii) was under 600 nM each time.
As to `Cc1nn(C(F)F)cc1-c1ccc(NC(=O)c2c(F)ccc(F)c2F)cc1`, the IC50 in test [4] (Table iv) and in test [5] (Table iv) was under 600 nM each time.
`Cc1nc(C(F)(F)F)cn1-c1ccc(NC(=O)c2c(F)cncc2F)cc1F`: the IC50 in test [4] (Table iv) is 600 to 1200 nM; in test [5] (Table iv), over 1200 nM.
With `Cc1nc(C(F)(F)F)cn1-c1ccc(NC(=O)c2c(F)ccc(F)c2F)cc1F`, the figures for the IC50 in test [4] (Table iv) and in test [5] (Table iv) were under 600 nM and over 1200 nM, respectively.
Turning to `Cn1nc(C(F)(F)F)cc1-c1ccc(NCc2c(F)cccc2F)cc1F`, the IC50 in test [4] (Table iii) and in test [5] (Table iii) was under 600 nM in each case.
As to `Cn1nc(C(F)(F)F)cc1-c1ccc(NC(=O)c2c(F)cccc2F)cc1`, the IC50 in test [4] (Table iv) and in test [5] (Table iv) was under 600 nM each time.
As to `Cc1ccccc1CNc1ccc(-c2nc(C(F)(F)F)sc2C)cc1`, the values for the IC50 in test [4] (Table iii) and in test [5] (Table iii) were under 600 nM and 600 to 1200 nM, respectively.
In the case of `Cc1cc(C(F)(F)F)nn1-c1ccc(NCc2c(F)cc(F)cc2F)cc1`, the IC50 in test [4] (Table iii) and in test [5] (Table iii) was under 600 nM each time.
Consider `CCn1nc(C(F)(F)F)cc1-c1ccc(NC(=O)c2c(F)cccc2F)cc1`, for which the IC50 in test [4] (Table iv) and in test [5] (Table iv) was under 600 nM throughout.
As to `O=C(Nc1ccc(-n2nc(C(F)(F)F)cc2C(F)(F)F)cc1)c1ccncc1F`, the IC50 in test [4] (Table iv) was under 600 nM; in test [5] (Table iv) it was 600 to 1200 nM.
In the case of `Cn1nc(C(F)(F)F)cc1-c1c(F)cc(NCc2ccc(F)cc2F)cc1F`, the IC50 in test [4] (Table iii) was under 600 nM. Moreover, the “Orai1/STIM1 (IC50, μmol)” value in test [5] (Table iii) is reported as “—”.
Consider `CCn1nc(C(F)(F)F)cc1-c1ccc(NC(=O)c2ccccc2F)cc1`, for which the IC50 in test [4] (Table iv) and in test [5] (Table iv) was under 600 nM in each case.
As for `Cn1nc(C(F)(F)F)cc1-c1ccc(NCc2c(F)ccc(F)c2F)cc1F`, the IC50 in test [4] (Table iii) and in test [5] (Table iii) was under 600 nM throughout.
For the compound `Cc1cc(C(F)(F)F)nn1-c1ccc(NC(=O)c2c(F)cncc2F)cc1`, the results for the IC50 in test [4] (Table iv) and in test [5] (Table iv) were under 600 nM and over 1200 nM, respectively.
As to `Cc1nc(C(F)(F)F)cn1-c1ccc(NCc2ccccc2F)cc1F`, the IC50 in test [4] (Table iii) and in test [5] (Table iii) was under 600 nM throughout.
In the case of `Cc1cc2c(cc1-c1ccc(NC(=O)c3c(F)cncc3F)cc1F)OC(F)(F)O2`, the IC50 in test [4] (Table iv) was under 600 nM; in test [5] (Table iv), over 1200 nM.
On to `Cn1nc(C(F)(F)F)cc1-c1ccc(NC(=O)c2c(F)cncc2F)cc1`, for which the IC50 in test [4] (Table iv) and in test [5] (Table iv) was under 600 nM each time.
As for `Cc1cc2c(cc1-c1ccc(NC(=O)c3cncc(F)c3)cc1)OC(F)(F)O2`, the figures for the IC50 in test [4] (Table iv) and in test [5] (Table iv) were under 600 nM and 600 to 1200 nM, respectively.
The corresponding values for `Cc1cc2c(cc1-c1ccc(NC(=O)c3ccccc3F)cc1F)OC(F)(F)O2` are under 600 nM and over 1200 nM.
The corresponding values for `Cc1nc(C(F)(F)F)cn1-c1ccc(NC(=O)c2ccccc2F)cc1` are under 600 nM and 600 to 1200 nM.
The corresponding values for `Cn1nc(C(F)(F)F)cc1-c1ccc(NC(=O)c2c(F)cccc2F)cc1F` are under 600 nM and under 600 nM.
In the case of `Cc1cc2c(cc1-c1ccc(NC(=O)c3c(C)cccc3F)cc1F)OC(F)(F)O2`, the IC50 in test [4] (Table iv) is under 600 nM; in test [5] (Table iv), over 1200 nM.
In the case of `Cn1nc(C(F)(F)F)cc1-c1ccc(NC(=O)c2ccccc2F)cc1`, the IC50 in test [4] (Table iv) and in test [5] (Table iv) was under 600 nM each time.
`Cn1nc(C(F)(F)F)cc1-c1ccc(NCc2ccc(F)cc2F)cc1`: the IC50 in test [4] (Table iii) and in test [5] (Table iii) was under 600 nM in each case.
On to `Cn1nc(C(F)(F)F)cc1-c1ccc(NC(=O)c2ccccc2F)cc1F`, for which the IC50 in test [4] (Table iv) and in test [5] (Table iv) was under 600 nM throughout.
As to `Cc1nc(C(F)(F)F)cn1-c1ccc(NCc2c(F)ccc(F)c2F)cc1`, the IC50 in test [4] (Table iii) and in test [5] (Table iii) was under 600 nM throughout.
Take `Cc1nc(C(F)(F)F)cn1-c1ccc(NC(=O)c2c(F)cc(F)cc2F)cc1`: the IC50 in test [4] (Table iv) is under 600 nM; in test [5] (Table iv) it was over 1200 nM.
Turning to `Cc1sc(C(F)(F)F)nc1-c1ccc(NC(=O)c2c(F)cc(F)cc2F)cc1`, the IC50 in test [4] (Table iv) and in test [5] (Table iv) was under 600 nM in each case.
In the case of `Cc1cc(F)ccc1CNc1ccc(-n2nc(C(F)(F)F)cc2C)c(F)c1`, the IC50 in test [4] (Table iii) is under 600 nM; in test [5] (Table iii) it was 600 to 1200 nM.
For the compound `Cn1nc(C(F)(F)F)cc1-c1ccc(NCc2c(F)cncc2F)cc1F`, the IC50 in test [4] (Table iii) and in test [5] (Table iii) was under 600 nM in each case.
As to `Cc1cc(C(F)(F)F)nn1-c1ccc(NCc2c(F)cccc2F)cc1`, the IC50 in test [4] (Table iii) and in test [5] (Table iii) was under 600 nM throughout.
On to `Cn1nc(C(F)(F)F)cc1-c1ccc(NC(=O)c2c(F)ccc(F)c2F)cc1F`, for which the IC50 was under 600 nM in test [4] (Table iv) and 600 to 1200 nM in test [5] (Table iv).
`Cc1cc2c(cc1-c1ccc(NCc3c(F)cccc3F)cc1F)OC(F)(F)O2`: the values for the IC50 in test [4] (Table iii) and in test [5] (Table iii) were under 600 nM and over 1200 nM, respectively.
